The subject of one series is cells of APL patients. Description: Ability to induce differentiation of cells of APL patients. It is filed as cell-based, human. As for the experimental part:
To illustrate the usefulness of the compound of the present invention as a differentiation inducer, a test example on the effects of the compound of the present invention on leukemic cells of APL patients and various cultured human leukemic cell lites will be given. The backgrounds of the patients providing the bloods employed in the test are as follows.
The cells samples from APL patients were adjusted to an initial cell count of 1 × 10⁶ cells/ml and incubated in the above-mentioned IMDM medium containing 10% of fetal calf serum for 5 days under the addition of the compound (I) or ATRA (10⁻⁶ to 10⁻⁸ mol/1), followed by the same evaluation as the one effected in the case of HL-60. Further, the ratio of mature cells to all the cells was determined in accordance with the following formula and taken as an indication for the comparison of the ability to induce differentiation: [formula]

Series [1] is described as follows: Acute toxicity test, single dose, SD rats. To be noted: in vivo, Rat (SD). As for the experimental part: (§1) By using 5 female and 5 male SD rats and ICR mice aged 7 to 8 weeks, the toxicities of the compound of the present invention were tested through oral, intramuscular, subcutaneous and intraperitoneal administrations each in a single dose (medium: 5% gum arabic).

Series [2] is described as follows: Acute toxicity test, single dose, ICR mice. To be noted: in vivo, Mouse (ICR). As for the experimental part:
as §1

For another series, the system named is mouse papilloma. The conditions noted are these: cited from earlier work.
The test system of a further series is HL-60. Briefly: Cytotoxicity on HL-60 (viable cell count, Trypan Blue). It is filed as cell-based. The conditions noted are these: human, 5 days. The method, then: After the completion of the incubation, the total cell count was calculated with a Burker-Turk calculation board and the viable cell count was calculated by regarding the cells stained with Trypan Blue as the dead ones. Thus ID₅₀ and LD₅₀ were determined. Further, a cytospin slide was prepared and the morphology of the cells was observed by the May-Giemsa staining method.

For the next series, the system named is mice. To be noted: cited from earlier work.
The subject of the next series is APL. The conditions noted are these: clinical data, Blood, 72, 567 - 572 (1988); cited from earlier work.
Where [3] appears, read: female, ♀, oral, medium 5% gum arabic, read-out: LD₅₀ Oral.
Where [4] appears, read: female, ip, ♀, intraperitoneal, read-out: LD₅₀ Intraperitoneal.
Setting [5] is: female, sc, ♀, subcutaneous, read-out: LD₅₀ Subcutaneous.
The mark [6] stands for this setting: male, ♂, oral, medium 5% gum arabic, read-out: LD₅₀ Oral.
Where [7] appears, read: male, im, ♂, intramuscular, read-out: LD₅₀ Intramuscular.
[8] abbreviates: male, ip, ♂, intraperitoneal, read-out: LD₅₀ Intraperitoneal.
The mark [9] stands for this setting: male, sc, ♂, subcutaneous, read-out: LD₅₀ Subcutaneous.

SMILES strings stand for the structures.

`CC(C)=CCC/C(C)=C/CC/C(C)=C/C=C/C(C)=C/C(=O)O` [compound (I), (2E,4E,6E,10E)-3,7,11,15-tetramethyl-2,4,6,10,14-hexadecapentaenoic acid]: the “effect of inducing differentiation” value in the series on cells of APL patients (5 days incubation, 10⁻⁶ to 10⁻⁸ mol/l) was “exhibited an effect of inducing differentiation similar to ATRA”. Also, the “efficacy on cells having a fused gene PML-RAR-α” value in the series with cells of APL patients (PML/RAR-α (+)) is given as “effective in all of the cases”. Moreover, the LD50 turned out to be 2850 mg/kg in series [1] (setting [3]); 680 mg/kg in series [1] (setting [4]); 2800 mg/kg in series [1] (setting [5]); 2400 mg/kg in series [1] (setting [6]); 830 mg/kg in series [1] (setting [7]); 731 mg/kg in series [1] (setting [8]). Besides, the LD50 was 2500 mg/kg in series [1] (setting [9]); over 6250 mg/kg in series [2] (setting [3]); over 2000 mg/kg in series [2] (female, im, ♀, intramuscular, read-out: LD₅₀ Intramuscular); 1.1 mg/kg in series [2] (setting [4]); over 4 mg/kg in series [2] (setting [5]); over 6250 mg/kg in series [2] (setting [6]). The LD50 was 2 mg/kg in series [2] (setting [7]), 970 mg/kg in series [2] (setting [8]) and over 4000 mg/kg in series [2] (setting [9]). In the series on mouse papilloma, the antitumor effect result is “exerts an antitumor effect”. Also, in the series on HL-60, the “ratio of the dead cells stained with Trypan Blue” value is on record as at most 10%. Besides, the “hypervitaminosis A (depilation, reduction in body weight)” value in the series on mice is given as “did not suffer from such a symptom”.
In the case of `CC1=C(/C=C/C(C)=C/C=C/C(C)=C/C(=O)O)C(C)(C)CCC1` [ATRA, all-trans-retinoic acid, reference compound], the “healing of APL patients” value in the series with APL is “about 100%”. For the same compound, the “ratio of the dead cells stained with Trypan Blue” value with HL-60 is given as at most 10%. The “hypervitaminosis A (depilation, reduction in body weight)” value in the series with mice was “suffered from hypervitaminosis A including depilation and reduction in body weight”.

The values are drawn from EP0614662A1, “Use of (2E,4E,6E,10E)-3,7,11,15-tetramethyl-2,4,6,10,14-hexadecapentaenoic acid for the treatment of leukaemia” (Eisai Co., Ltd., priority 1993, dated 1994).
